Data from ChEMBL document CHEMBL3045782, “SYNTHESIS OF THE RIGID ANALOGUES OF AN SSRI BENZENEPROPANAMINE” (Med Chem Res, 2004).
Active and inactive are the calls of the source. The calls are words filed in the database; no cut-off is given here.

What was measured:
Mus musculus [1] = experiment: Toxicity in Mus musculus albino (mouse) assessed as effect on gross behavior activity at 75 umol/kg, ip; assay type: organism-based; settings: in vivo
Mus musculus [2] = experiment: Antidepressant activity in Mus musculus albino (mouse) assessed as reversal of reserpine-induced ptosis, sedation and crouching at 75 umol/kg, ip; assay type: functional
Mus musculus [3] = experiment: Anorexigenic activity in Mus musculus albino (mouse) assessed as anorexia at 75 umol/kg, ip; assay type: functional
Mus musculus [4] = experiment: Anorexigenic activity in Mus musculus albino (mouse) assessed as anorexia at 75 umol/kg, ip relative to fluoxetine; assay type: functional

Compound | Activity (Mus musculus [1]) | Activity (Mus musculus [2]) | Activity (Mus musculus [3]) | Activity (Mus musculus [4])
OC(COc1ccccc1)CN1CCC(Oc2ccc(C(F)(F)F)cc2)CC1 (stereo unspecified) | Non-toxic | inactive | 67.6% | 82.84%
OC(COc1ccc(Br)cc1)CN1CCC(Oc2ccc(C(F)(F)F)cc2)CC1 (stereo unspecified) | Non-toxic | inactive | 77.6% | 95.09%
OC(COc1cccc(C(F)(F)F)c1)CN1CCC(Oc2ccc(C(F)(F)F)cc2)CC1 (stereo unspecified) | Non-toxic | inactive | 31.2% | 38.23%
OC(COc1ccc(C(F)(F)F)cc1)CN1CCC(Oc2ccc(C(F)(F)F)cc2)CC1 (stereo unspecified) | Non-toxic | inactive | 63.6% | 77.94%
COC(=O)c1ccc(OCC(O)CN2CCC(Oc3ccc(C(F)(F)F)cc3)CC2)cc1 (stereo unspecified) | Non-toxic | inactive | 26.8% | 32.84%
N#Cc1ccc(OCC(O)CN2CCC(Oc3ccc(C(F)(F)F)cc3)CC2)cc1 (stereo unspecified) | Non-toxic | inactive | 57.6% | 70.58%
CC(=O)c1ccc(OCC(O)CN2CCC(Oc3ccc(C(F)(F)F)cc3)CC2)cc1 (stereo unspecified) | Non-toxic | inactive | 78.4% | 96.07%
COc1cccc(OCC(O)CN2CCC(Oc3ccc(C(F)(F)F)cc3)CC2)c1 (stereo unspecified) | Non-toxic | 50% | 51.6% | 63.23%
COC(=O)c1ccccc1OCC(O)CN1CCC(Oc2ccc(C(F)(F)F)cc2)CC1 (stereo unspecified) | Non-toxic | inactive | 35.2% | 43.13%
OC(COc1ccc(Cl)cc1)CN1CCC(Oc2ccc(C(F)(F)F)cc2)CC1 (stereo unspecified) | Non-toxic | 75% | 61.6% | 75.49%
COc1ccc(OCC(O)CN2CCC(Oc3ccc(C(F)(F)F)cc3)CC2)cc1 (stereo unspecified) | Non-toxic | inactive | 38.4% | 47.05%
CN1CCC(O)(c2ccccc2)CC1 | Non-toxic | inactive | 46.4% | 56.86%
CC(=O)Nc1ccc(OCC(O)CN2CCC(Oc3ccc(C(F)(F)F)cc3)CC2)cc1 (stereo unspecified) | Non-toxic | inactive | 50.4% | 61.67%
CNCCC(Oc1ccc(C(F)(F)F)cc1)c1ccccc1 (stereo unspecified) [FLUOXETINE] |  | 100% | 81.6% | 
FC(F)(F)c1ccc(OC2CCNCC2)cc1 | Non-toxic | 75% | 66.8% | 81.86%
CCC(=O)c1ccc(OCC(O)CN2CCC(Oc3ccc(C(F)(F)F)cc3)CC2)cc1 (stereo unspecified) | Non-toxic | inactive | 55.2% | 67.64%
CN1CCC(Oc2ccc(C(F)(F)F)cc2)CC1 | Non-toxic | inactive | 23.6% | 28.92%
